The results in this text go back to US8790712B2, “Constitutional function-improving agents” (Cosmo Oil Co., Ltd., priority 2004, dated 2014).

Each structure is given as a SMILES string.

Type in all cases: in vivo, mouse
In one experiment the test system is ALA dehydrase (ALAD). In words: ALAD activity of blood (Example 5). The settings on record: male mice, 10 mg/kg orally once a day for 7 days. Here is the method: (§1) Mice (35 to 45 weeks old, BALB/cAJc1) preliminary raised for 1 week were injected with 10 mg of ALA hydrochloride per 1 kg mouse body weight once a day for 7 days continuously. ALA hydrochloride was adjusted to a concentration of […] with distilled water and orally administered to the mice. After the test, each mouse was sacrificed to collect mouse blood, and ALA dehydrase (ALAD) activity (the activity of ALA in which it is dimerized and thereby forms porphobilinogen (hereinafter referred to as “PBG”) as one molecule pyrrole substance) and porphobilinogen deaminase (PBGD) activity (the activity to convert from PBG to hydroxymethylbilane) per 1 ml of the blood were measured. […] To 0.02 ml of heparin-treated mouse whole blood, 0.33 ml of distilled water was added, the mixture was adjusted to a total volume of 0.5 ml by adding thereto 0.05 ml of 0.5 M Na-phosphate buffer (pH 6.4), 0.05 ml of 0.1 M DTT (containing 1 mM ZnSO4) and 0.05 ml of 50 mM ALA hydrochloride and was kept at 37° C. for 30 minutes, the reaction was stopped by adding 0.5 ml of 1 M trichloroacetic acid, and then Ehrlich reagent was added to a supernatant after centrifugation at 3000 rpm in the same volume, and precisely 10 minutes thereafter, absorbance at 553 nm, which is a characteristic absorbance of the compound formed by the reaction of Ehrlich reagent with PBG, was measured (OD) using a spectrophotometer. […]

In experiment [1] the test system is Mice (35 to 45 weeks old, BALB/cAJc1). In words: Rotary exercise quantity measuring device, rotations within 16 hours (Example 6). Here is the method: Mice (35 to 45 weeks old, BALB/cAJc1) preliminary raised for 1 week were injected with 10 mg of ALA hydrochloride per 1 kg mouse body weight once a day for 7 days continuously. ALA hydrochloride was adjusted to a concentration of […] with distilled water and orally administered to the mice. The mouse was put into a rotary exercise quantity measuring device (rotating basket: 200 mm in diameter×50 mm in width, raising basket: W 90 mm×D 220 mm×H 90 mm, manufactured by Shinano Seisakusho) and the number of rotation within 16 hours was measured before and after the test. The test was carried out using 1 mouse per 1 rotary exercise quantity measuring device, and carried out on female mice using untreated 5 animals and ALA-treated 5 animals as 1 plot, and the values were shown by the average value. It was confirmed that the rotation quantity was large and the exercise capacity was improved in the plot treated with ALA.

The subject of a further experiment is thymus cells. As to the kind of experiment: Thymus weight and number of thymus cells of aged mice (Example 2). The settings on record: 10 mg/kg orally once a day for 7 days; for The number of cells: thymus. Here is the method:
Mice (35 to 45 weeks old, BALB/cAJc1) preliminary raised for 1 week were injected with 10 mg of ALA hydrochloride per 1 kg mouse body weight once a day for 7 days continuously. ALA hydrochloride was adjusted to a concentration of […] with distilled water and orally administered to the mice. After the test, each mouse was sacrificed and the weight of its thymus and the number of cells were measured. In addition, a subset test of lymphocytes was carried out using the obtained cells. The test was carried out using 5 mice per 1 plot, and their values were shown by average value. […] Also, since the cell of CD4-CD8+ was increased in the ALA-treated plot based on the subset test, it was confirmed that the cytotoxic T cell increases after its future differentiation, so that its immunological function improving ability was shown (Table 3). In addition, photographs of the thymus of untreated plot (un-administered group) and the thymus of ALA-treated plot (ALA-treated group) are shown in FIG. 1.

Experiment [2] concerns porphobilinogen deaminase (PBGD). In words: PBGD activity of blood (Example 5). The settings on record: male mice, 10 mg/kg orally once a day for 7 days. Here is the method:
as §1

Setting [3] is: within 16 hours, after 7 days of 10 mg/kg oral dosing.
The mark [4] stands for this setting: within 16 hours, before the 7 days of 10 mg/kg oral dosing.

Take `NCC(=O)CCC(=O)O` [ALA, 5-aminolevulinic acid]: the ALAD activity in the experiment with ALA dehydrase (ALAD) was found to be 1.76 μmol PBG/ml RBC/h. For the same compound, in experiment [1] (rotary exercise, 10 mg/kg orally once a day for 7 days), the “Increasing ratio before and after the test (%)” value came to 125%. Further, in experiment [1] (setting [3]), the “Distance (m), after the test” value was 8889 m and the “Number of rotation, after the test” value is 14155. In experiment [1] (setting [4]), the “Distance (m), before the test” value was found to be 7095 m and the “Number of rotation, before the test” value is reported as 11297. Besides, in the experiment on thymus cells (female mice), the “Thymus” value is listed as 0.044 g and the “The number of cells” value is given as 49.9 × 10^6. Moreover, in the experiment on thymus cells (male mice), the “Thymus” value came to 0.034 g and the “The number of cells” value is given as 22.0 × 10^6. The PBGD activity in experiment [2] came to 67.36 nmol URO/ml RBC/h.
